Numbers after ± are expanded uncertainties.
Assay: excess molar enthalpy (molar enthalpy of mixing); xn = mol fraction of the nth substance listed
Settings: Liquid, Flow calorimetry

In the case of `CCCC(C)O` (centres undefined) [pentan-2-ol] + C1CCCCC1, the excess molar enthalpy (298.15 K, x1 = 0.0496) is reported as 0.105 ± 0.00143 kcal/mol, the excess molar enthalpy (298.15 K, x1 = 0.1013) is reported as 0.144 ± 0.00186 kcal/mol and the excess molar enthalpy (298.15 K, x1 = 0.151) is reported as 0.169 ± 0.00217 kcal/mol. The excess molar enthalpy (298.15 K, x1 = 0.2008) was 0.189 ± 0.00239 kcal/mol, the excess molar enthalpy (298.15 K, x1 = 0.2506) was 0.205 ± 0.00263 kcal/mol and the excess molar enthalpy (298.15 K, x1 = 0.3005) was 0.218 ± 0.00287 kcal/mol. The excess molar enthalpy (298.15 K, x1 = 0.3503) was 0.228 ± 0.00287 kcal/mol, the excess molar enthalpy (298.15 K, x1 = 0.4001) was 0.232 ± 0.00287 kcal/mol and the excess molar enthalpy (298.15 K, x1 = 0.4499) was 0.234 ± 0.00287 kcal/mol. It also gave an excess molar enthalpy (298.15 K, x1 = 0.5002) of 0.228 ± 0.00287 kcal/mol, an excess molar enthalpy (298.15 K, x1 = 0.5499) of 0.22 ± 0.00287 kcal/mol and an excess molar enthalpy (298.15 K, x1 = 0.6002) of 0.207 ± 0.00263 kcal/mol. The excess molar enthalpy (298.15 K, x1 = 0.6501) was 0.187 ± 0.00239 kcal/mol, the excess molar enthalpy (298.15 K, x1 = 0.7002) was 0.166 ± 0.00213 kcal/mol and the excess molar enthalpy (298.15 K, x1 = 0.7504) was 0.146 ± 0.00189 kcal/mol. It also gave an excess molar enthalpy (298.15 K, x1 = 0.8007) of 0.121 ± 0.0016 kcal/mol, an excess molar enthalpy (298.15 K, x1 = 0.8509) of 0.0932 ± 0.00124 kcal/mol and an excess molar enthalpy (298.15 K, x1 = 0.9013) of 0.0625 ± 0.000884 kcal/mol. The excess molar enthalpy (298.15 K, x1 = 0.9496) was 0.0302 ± 0.000502 kcal/mol, the excess molar enthalpy (298.15 K, x1 = 1) was 0 ± 0.000239 kcal/mol and the excess molar enthalpy (313.15 K, x1 = 0.0496) was 0.133 ± 0.00177 kcal/mol. For the same molecule, the excess molar enthalpy (313.15 K, x1 = 0.1013) was 0.181 ± 0.00232 kcal/mol, the excess molar enthalpy (313.15 K, x1 = 0.151) was 0.208 ± 0.00263 kcal/mol and the excess molar enthalpy (313.15 K, x1 = 0.2008) was 0.229 ± 0.00287 kcal/mol. It also gave an excess molar enthalpy (313.15 K, x1 = 0.2506) of 0.246 ± 0.00311 kcal/mol, an excess molar enthalpy (313.15 K, x1 = 0.3003) of 0.258 ± 0.00335 kcal/mol and an excess molar enthalpy (313.15 K, x1 = 0.3502) of 0.265 ± 0.00335 kcal/mol. The excess molar enthalpy (313.15 K, x1 = 0.4002) was 0.265 ± 0.00335 kcal/mol, the excess molar enthalpy (313.15 K, x1 = 0.4501) was 0.265 ± 0.00335 kcal/mol and the excess molar enthalpy (313.15 K, x1 = 0.5001) was 0.259 ± 0.00335 kcal/mol. It also gave an excess molar enthalpy (313.15 K, x1 = 0.5501) of 0.251 ± 0.00311 kcal/mol, an excess molar enthalpy (313.15 K, x1 = 0.6001) of 0.236 ± 0.00311 kcal/mol and an excess molar enthalpy (313.15 K, x1 = 0.6502) of 0.219 ± 0.00287 kcal/mol. The excess molar enthalpy (313.15 K, x1 = 0.7003) was 0.198 ± 0.00263 kcal/mol, the excess molar enthalpy (313.15 K, x1 = 0.7505) was 0.171 ± 0.0022 kcal/mol and the excess molar enthalpy (313.15 K, x1 = 0.8007) was 0.144 ± 0.00186 kcal/mol. The excess molar enthalpy (313.15 K, x1 = 0.851) was 0.11 ± 0.00146 kcal/mol, the excess molar enthalpy (313.15 K, x1 = 0.9013) was 0.0756 ± 0.00105 kcal/mol and the excess molar enthalpy (313.15 K, x1 = 0.9496) was 0.0394 ± 0.000621 kcal/mol. For the same molecule, the excess molar enthalpy (313.15 K, x1 = 1) was 0 ± 0.000239 kcal/mol.
With `Cc1ccccc1` [toluene] + CCCC(C)O the excess molar enthalpy (298.15 K, x2 = 0) was 0 ± 0.000239 kcal/mol and the excess molar enthalpy (313.15 K, x2 = 0) was 0 ± 0.000239 kcal/mol.
Molecule `CCCC(C)O` (centres undefined) [pentan-2-ol] + Cc1ccccc1 has an excess molar enthalpy (298.15 K, x1 = 0.0508) of 0.149 ± 0.00198 kcal/mol, an excess molar enthalpy (298.15 K, x1 = 0.0998) of 0.226 ± 0.00287 kcal/mol and an excess molar enthalpy (298.15 K, x1 = 0.151) of 0.276 ± 0.00359 kcal/mol. The excess molar enthalpy (298.15 K, x1 = 0.2002) was 0.31 ± 0.00382 kcal/mol, the excess molar enthalpy (298.15 K, x1 = 0.2496) was 0.335 ± 0.0043 kcal/mol and the excess molar enthalpy (298.15 K, x1 = 0.3009) was 0.354 ± 0.00454 kcal/mol. For the same molecule, the excess molar enthalpy (298.15 K, x1 = 0.3506) was 0.367 ± 0.00454 kcal/mol, the excess molar enthalpy (298.15 K, x1 = 0.4003) was 0.373 ± 0.00478 kcal/mol and the excess molar enthalpy (298.15 K, x1 = 0.4501) was 0.373 ± 0.00478 kcal/mol. It also gave an excess molar enthalpy (298.15 K, x1 = 0.5001) of 0.369 ± 0.00454 kcal/mol, an excess molar enthalpy (298.15 K, x1 = 0.5501) of 0.359 ± 0.00454 kcal/mol and an excess molar enthalpy (298.15 K, x1 = 0.6003) of 0.344 ± 0.0043 kcal/mol. It also gave an excess molar enthalpy (298.15 K, x1 = 0.6506) of 0.32 ± 0.00406 kcal/mol, an excess molar enthalpy (298.15 K, x1 = 0.701) of 0.293 ± 0.00359 kcal/mol and an excess molar enthalpy (298.15 K, x1 = 0.7495) of 0.259 ± 0.00335 kcal/mol. The excess molar enthalpy (298.15 K, x1 = 0.8002) was 0.22 ± 0.00287 kcal/mol, the excess molar enthalpy (298.15 K, x1 = 0.8509) was 0.173 ± 0.00222 kcal/mol and the excess molar enthalpy (298.15 K, x1 = 0.8996) was 0.12 ± 0.00158 kcal/mol. For the same molecule, the excess molar enthalpy (298.15 K, x1 = 0.9508) was 0.0597 ± 0.000884 kcal/mol, the excess molar enthalpy (298.15 K, x1 = 1) was 0 ± 0.000239 kcal/mol and the excess molar enthalpy (313.15 K, x1 = 0.0508) was 0.154 ± 0.00206 kcal/mol. The excess molar enthalpy (313.15 K, x1 = 0.0999) was 0.245 ± 0.00311 kcal/mol, the excess molar enthalpy (313.15 K, x1 = 0.151) was 0.307 ± 0.00382 kcal/mol and the excess molar enthalpy (313.15 K, x1 = 0.2003) was 0.346 ± 0.0043 kcal/mol. For the same molecule, the excess molar enthalpy (313.15 K, x1 = 0.2496) was 0.375 ± 0.00478 kcal/mol, the excess molar enthalpy (313.15 K, x1 = 0.301) was 0.397 ± 0.00502 kcal/mol and the excess molar enthalpy (313.15 K, x1 = 0.3506) was 0.408 ± 0.00502 kcal/mol. For the same molecule, the excess molar enthalpy (313.15 K, x1 = 0.4003) was 0.414 ± 0.00526 kcal/mol, the excess molar enthalpy (313.15 K, x1 = 0.4502) was 0.414 ± 0.00526 kcal/mol and the excess molar enthalpy (313.15 K, x1 = 0.5001) was 0.407 ± 0.00502 kcal/mol. For the same molecule, the excess molar enthalpy (313.15 K, x1 = 0.5502) was 0.394 ± 0.00502 kcal/mol, the excess molar enthalpy (313.15 K, x1 = 0.6003) was 0.377 ± 0.00478 kcal/mol and the excess molar enthalpy (313.15 K, x1 = 0.6505) was 0.353 ± 0.0043 kcal/mol. For the same molecule, the excess molar enthalpy (313.15 K, x1 = 0.701) was 0.32 ± 0.00406 kcal/mol, the excess molar enthalpy (313.15 K, x1 = 0.7495) was 0.282 ± 0.00359 kcal/mol and the excess molar enthalpy (313.15 K, x1 = 0.8002) was 0.239 ± 0.00311 kcal/mol. For the same molecule, the excess molar enthalpy (313.15 K, x1 = 0.851) was 0.187 ± 0.00239 kcal/mol, the excess molar enthalpy (313.15 K, x1 = 0.8998) was 0.132 ± 0.00172 kcal/mol and the excess molar enthalpy (313.15 K, x1 = 0.9509) was 0.0661 ± 0.000956 kcal/mol. For the same molecule, the excess molar enthalpy (313.15 K, x1 = 1) was 0 ± 0.000239 kcal/mol.
For `C1CCCCC1` [cyclohexane] + CCCC(C)O, the excess molar enthalpy (298.15 K, x2 = 0) was 0 ± 0.000239 kcal/mol and the excess molar enthalpy (313.15 K, x2 = 0) was 0 ± 0.000239 kcal/mol.

From the NIST ThermoML archive (doi:10.1016/j.fluid.2015.09.035)
